Reference: PubChem BioAssay AID463204 (Broad Institute, 2010)
Active and inactive are the calls of the source.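 How the source made its calls: active means AC50 no more than ten times the top concentration tested, that is within one log above it; inconclusive means flat curve fit with activity between 30% and 70%, or invalid poor fit; inactive means AC50 beyond ten times the top tested dose.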

Test system: S. cerevisiae Mot1-301 ts growth rescue, BacTiter-Glo ATP luminescence
Assay: growth rescue of Mot1-301 ts yeast, confirmation, SUMOylation pathway inhibitor project, whole organism, S. cerevisiae, Mot1-301 ts mutant, luminescence, dose retest (AID 463204);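 further: growth at restrictive 38.5 degrees C of Mot1-301 OY566 strain; actives raise luminescence by restoring growth of the ts mutant at high temperature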

SMILES	AC50
O=C(NC(=S)NNC(=O)c1ccccc1O)c1cccc([N+](=O)[O-])c1	> 42 µM (inactive)
CC(=O)/C=C/n1c(=S)oc2ccccc21	11.3 µM
CC(OC(=O)c1cnccn1)C(=O)c1ccccc1 (centres undefined)	> 42 µM (inactive)
COc1ccc(N2C(=O)CSC2c2ccc([N+](=O)[O-])cc2)cc1 (centres undefined)	> 42 µM (inactive)
COc1ccccc1CNC(=O)CCC(=O)Nc1nnc(C(C)C)s1	> 42 µM (inactive)
O=C(O)CCSc1ccc([N+](=O)[O-])cc1[N+](=O)[O-]	8.27 µM
CCCSc1nnc(NC(=O)CSc2sc3c(O)cc(=O)[nH]c3c2C#N)s1	> 42 µM (inactive)
CC(=O)Nc1ccc(S(=O)(=O)Nc2ccc(S(=O)(=O)Nc3ncccn3)cc2)cc1	> 42 µM (inactive)
CC(=O)c1cc(C)ccc1OC(=O)c1ccco1	> 42 µM (inactive)
C=C1C(O)[C@@H]2O[C@]3(CC[C@H](/C=C/C(C)[C@@H]4CC(C)=CC5(O[C@H](C[C@@](C)(O)C(=O)O)CCC5O)O4)O3)CC[C@H]2O[C@@H]1C(O)CC(C)[C@H]1OC2(CCCCO2)CCC1C (some centres undefined)	26 µM
Cc1cc(Cl)c2oc(C(=O)NC3CCC(O)CC3)c(C)c2c1 (centres undefined)	> 42 µM (inactive)
CCCCCC(=O)Nc1nnn(CCC)n1	> 42 µM (inactive)
COC(=O)c1ccncc1C(=O)Nc1ccc(Oc2ncc(C(F)(F)F)cc2Cl)cc1	> 42 µM (inactive)
CCOC(=O)C(NC(=O)c1ccccc1)(N1CCOCC1)C(F)(F)F (centres undefined)	> 42 µM (inactive)
CCC(CC)C(=O)N1CCCC(c2nc(-c3cccs3)no2)C1 (centres undefined)	> 42 µM (inactive)
Cc1cc2c(C)ccc(C)c2nc1SCC(=O)c1cccs1	> 42 µM (inactive)
O=S(=O)(Nc1ccc(N2CCOCC2)cc1)c1cccs1	> 42 µM (inactive)
O=C(c1cccs1)N(C(=O)c1cccs1)c1ccc(Br)cn1	1.35 µM
CC(C)(C)NC(=O)NC(=O)CN1CCN(S(=O)(=O)c2ccc3c(c2)OCCO3)CC1	> 21 µM (inactive)
O=C(Cc1ccc(Cl)cc1)NC(=S)Nc1ccccc1N1CCOCC1	> 42 µM (inactive)
Cc1ccc(C)c(C(C)NC(=O)c2ccncc2)c1 (centres undefined)	> 42 µM (inactive)
CN(C(=O)COC(=O)c1cc(-c2ccc(Cl)s2)nc2ccccc12)C1CCS(=O)(=O)C1 (centres undefined)	> 42 µM (inactive)
Cc1ccccc1Nc1cc(=O)oc2ccccc12	> 42 µM (inactive)
CCCCC(=O)Nc1cc(OC)c(NC(=O)C2CCCCC2)cc1OC	> 42 µM (inactive)
O=C(NNC(=O)c1ccc(-n2cncn2)c([N+](=O)[O-])c1)c1ccc(Cl)cc1	> 42 µM (inactive)
O=C(Nc1ccsc1C(=O)O)c1cccc(C(F)(F)F)c1	> 42 µM (inactive)
O=C1NC(c2ccccc2)C(C(=O)c2cccs2)C(O)(C(F)(F)F)N1 (centres undefined)	> 42 µM (inactive)

SMILES	AC50
CCc1ccc(NC(=O)N2CCC(c3ccccc3)C2)cc1 (centres undefined)	> 42 µM (inactive)
O=C1NC(=O)N(Cc2ccccc2)C1=O	> 42 µM (inactive)
O=C1c2ccccc2C(=O)N1CCCCSc1nc2ccccc2c(=O)n1CCCN1CCOCC1	> 42 µM (inactive)
COc1ccccc1CNC(=O)[C@H](C)NC(=O)C1CCN(C(=O)[C@@H](N)CC(C)C)CC1	> 42 µM (inactive)
S=C(c1ccc(N2CCOCC2)cc1)N1CCCCC1	> 42 µM (inactive)
O=C(Nc1cc(F)ccc1F)C1CCCO1 (centres undefined)	> 42 µM (inactive)
Cc1ccc(-n2c(-c3ccco3)nc3c(cnn3-c3ccc(C)cc3)c2=O)cc1	> 42 µM (inactive)
C=CCn1cc(C(C)=O)c(=O)[nH]c1=O	> 42 µM (inactive)
CSc1nnc2c3cc(C)ccc3n(Cc3ccccc3)c2n1	> 42 µM (inactive)
CC(C)(C)CC(=O)Nc1cc(S(=O)(=O)N2CCOCC2)ccc1N1CCCC1	> 42 µM (inactive)
Cc1cc(C)nc(-n2nc(C)cc2NC(=O)CNCc2ccccc2)n1	> 42 µM (inactive)
CCN(CC)S(=O)(=O)c1ccc(N2CCCC2)c(C(=O)OCC(=O)Nc2cc(C)on2)c1	> 42 µM (inactive)
Cc1ccc(S(=O)(=O)Cc2ccc(C(=O)N3CCN(c4ccccn4)CC3)o2)cc1	> 42 µM (inactive)
COC(=O)c1cc(N=Nc2c(C)[nH]c3ccccc23)cc(C(=O)OC)c1	> 42 µM (inactive)
Cc1ccc(C)c(NC(NC(=O)c2ccccn2)C(Cl)(Cl)Cl)c1 (centres undefined)	> 42 µM (inactive)
Oc1c(Cl)cc(Cl)c(Cl)c1Cc1c(O)c(Cl)cc(Cl)c1Cl	0.84 µM
c1ccc(-c2cc3cc4c(cc3cn2)OCO4)cc1	11.7 µM
CC1Cc2ccccc2N1C(=O)CNc1cccc(S(=O)(=O)N2CCCC2)c1 (centres undefined)	> 42 µM (inactive)
COc1nc(-c2ccccc2)ccc1-c1noc(-c2ccccc2)n1	> 42 µM (inactive)
CC(C)c1nc2n[nH]c(N)c2c2c1CCC2	> 42 µM (inactive)
COc1ccc(C2C3=C(CC(C)(C)CC3=O)Nc3n[nH]c(C)c32)cc1 (centres undefined)	> 42 µM (inactive)
C=CCNC(=O)c1onc(CSc2cccc(C)c2)c1C(=O)O	> 42 µM (inactive)
Cc1onc(-c2ccccc2)c1C(=O)N/N=C/C=C/c1ccccc1	> 42 µM (inactive)
COc1ccc(S(=O)(=O)N2CCCC2CNC(=O)C(=O)NCc2ccccn2)cc1 (centres undefined)	> 42 µM (inactive)
COc1ccc(NC(=O)C2CCCN2S(=O)(=O)c2cccc3cccnc23)cc1OC (centres undefined)	> 42 µM (inactive)
Nc1cccc2c1C(=O)N(c1ccccc1)C2=O	> 42 µM (inactive)
OC(COCc1cccs1)CN1CCCCCC1 (centres undefined)	> 42 µM (inactive)
